In one assay the test system is COX. Conditions: Haanen, 2001; cited from earlier work.
The test system of the next assay is HepG2 liver cancer cells. Briefly: PARP cleavage and caspase-8 activation with TNFα by immunoblotting. It is filed as cell-based. The conditions noted are these: HepG2 cells, SR11237 1 μM, 1 hr pretreatment. How it is done: ZR-75-1 cells were treated with TNFα and/or Sulindac (75 μM) or K-80003 (50 μM) for 6 hr and analyzed by immunoblotting.
HepG2 cells cultured in medium with 1% FBS were treated with SR11237 (1 μM) for 1 hr, then TNFα (10 ng/ml) and/or Sulindac (75 μM) for 4 hr, and analyzed by immunoblotting. HepG2 cells transfected with control or RXRα siRNA were treated with TNFα and/or Sulindac and analyzed by immunoblotting.
For orientation: In western blotting, separated proteins are transferred to a membrane and probed.

Consider `CC1=C(CC(=O)O)c2cc(F)ccc2/C1=C\c1ccc(S(C)(=O)=O)cc1` [sulindac sulfone], for which the COX-inhibiting activity result in the assay on COX was “no COX-inhibiting activity”.
Consider `CC1(C)CCC(C)(C)c2cc(C3(c4ccc(C(=O)O)cc4)OCCO3)ccc21` [SR11237], for which the “suppression of the apoptotic effect of Sulindac/TNFα combination” value in the assay with HepG2 liver cancer cells is reported as “partially suppressed”.
Turning to `CC1=C(CC(=O)O)c2cc(F)ccc2/C1=C/c1ccc([S+](C)[O-])cc1` (stereo not drawn) [sulindac sulfoxide], the COX-inhibiting activity result in the assay on COX was “no COX-inhibiting activity”.

The values are drawn from US10087156B2, “Methods and compositions related to retinoid receptor-selective pathway” (Sanford Burnham Prebys Medical Discovery Institute, priority 2010, dated 2018).
